In US20110105510A1, “PROPHYLACTIC/AMELIORATING OR THERAPEUTIC AGENT FOR NON-ALCOHOLIC STEATOHEPATITIS” (priority 2008, published 2011):

Tests used:
[1] = tested on: high fat and high sucrose diet taking SD rats; experiment: Efficacy on high fat and high sucrose diet taking rats; assay type: in vivo, rat; details: HF diet SD rats, four weeks, oral once a day; EPA-E 1000 mg/kg or compound 2 1 mg/kg; compared with the control group
Description: Four-week-old male SD rats are fed at 23° C. on a 12:12 light/dark cycle, whereupon they are permitted to take either an ordinary diet (F-1; Funabashi Farm Co., Ltd.) or a high fat and high sucrose diet (TD88137 from Harlan […]; hereafter referred to as “HF diet”) freely for four weeks. The rats are divided into five groups (each comprising 10 animals), namely, normal group (ordinary diet-loaded), control group (HF diet-loaded), EPA-E group (HF diet-loaded, plus EPA-E-administered), compound 2 group (HF diet-loaded, plus compound 2-administered), and combined application group (HF diet-loaded, plus EPA-E-administered, plus compound 2-administered). During the feeding, 1000 mg/kg of EPA-E is administered to the EPA-E group, 1 mg/kg of compound 2 to the compound 2 group, as well as 1000 mg/kg of EPA-E and 1 mg/kg of compound 2 are administered to the combined application group, with each administration being orally carried out once a day by suspending the relevant drug or drugs in a 5% aqueous solution of gum arabic. To the normal group and the control group, a 5% aqueous solution of gum arabic is orally administered once a day. After the feeding for four weeks, blood samples are collected to measure the neutrophil count and conduct biochemical assays of the plasma.

[2] = tested on: diabetic mice (db/db) loaded with a methionine-choline-deficient diet; experiment: Efficacy on methionine-choline-deficient diet diabetic mice; assay type: in vivo, mouse; details: MCD diet db/db mice, two weeks, oral once a day; EPA-E 1000 mg/kg or compound 1 1 mg/kg; compared with the control group
Description: Pharmacological actions of EPA-E and/or compound 1 on hepatic disorders and fibrosis are confirmed by using diabetic mice loaded with a methionine-choline-deficient diet (hereafter referred to as “MCD diet”), which are known for their development of NASH-like hepatic lesions. Seven-week-old male db/db mice (Charles River Japan, Inc.) are fed at 23° C. on a 12:12 light/dark cycle, whereupon they are permitted to take either an ordinary diet (F-1; Funabashi Farm Co., Ltd.) or a MCD diet (Dyets, Inc.) freely for two weeks. The mice are divided into five groups (each comprising 20 animals), namely, normal group (ordinary diet-loaded), control group (MCD diet-loaded), EPA-E group (MCD diet-loaded, plus EPA-E-administered), compound 1 group (MCD diet-loaded, plus compound 1-administered), and combined application group (MCD diet-loaded, plus EPA-E-administered, plus compound 1-administered). During the feeding, 1000 mg/kg of EPA-E is administered to the EPA-E group, 1 mg/kg of compound 1 to the compound 1 group, as well as 1000 mg/kg of EPA-E and 1 mg/kg of compound 1 are administered to the combined application group, with each administration being orally carried out once a day by suspending the relevant drug or drugs in a 5% aqueous solution of gum arabic. To the normal group and the control group, a 5% aqueous solution of gum arabic is orally administered once a day. […]

NASH = details: EPA-E of high purity, 2700 mg/day for 12 months; cited from earlier work

## CCn1ncc2c(-c3cncc(Br)c3)c(C#N)c(C)nc21 [compound 2, 4-(5-bromo-3-pyridyl)-1-ethyl-6-methyl-1H-pyrazolo[3,4-b]pyridine-5-carbonitrile]
[1]
  increases of the neutrophil count, TNFα, IL-6, high sensitivity CRP, ferritin, thioredoxin and type IV collagen: suppressed
  increases of the plasma AST and ALT levels: suppressed

## CC/C=C\C/C=C\C/C=C\C/C=C\C/C=C\CCCC(=O)OCC [EPA-E, EPA ethyl]
[2]
  increases of the plasma AST and ALT levels: suppressed
  increases of the type IV collagen, hyaluronic acid and TIMP-1 levels: suppressed
NASH
  NASH (AST or ALT, inflammatory cytokines or oxidative stress markers, hepatobiopsy): amelioration of NASH
[1]
  increases of the neutrophil count, TNFα, IL-6, high sensitivity CRP, ferritin, thioredoxin and type IV collagen: suppressed
  increases of the plasma AST and ALT levels: suppressed
